Data as given in EP4813991A1 (iLeadBMS Co., Ltd., priority 2023, dated 2025).

Key:
DLD-1 = experiment: Colorectal cancer cell proliferation inhibitory activity, DLD-1; type: cell-based; details: Homo sapiens, 72 hours, Cell Counting Kit-8, relative IC50
Procedure: (§1) Experiments were performed using seven types of colorectal cancer cell lines to measure the cell proliferation inhibitory ability of each Example compound. DLD-1, LoVo, SW620, SW480, HCT116, HCT15, and HT29 cells were dispensed into a 96-well plate at 100 µL of cell suspension per well using RPMI1640 medium containing 10 % FBS and 1 % PS, followed by incubation in a cell incubator at 37 °C and 5 % CO2. The next day, each Example compound dissolved and diluted in DMSO across 10 concentration ranges and a DMSO control group were treated on the cells for 72 hours. After completion of the compound treatment, 10 µL of Cell Counting Kit-8 (Dojindo) reagent was added to each well of the 96-well plate, followed by incubation for 2 hours. […] were measured after inserting the 96-well plate into an Envision plate reader […]. Relative IC50 values were calculated by fitting a dose-response curve using Graphpad PRISM software.
The colorectal cancer cell proliferation inhibitory activities of the Example compounds measured by the method described above were evaluated according to the following criteria, and the results are presented in Table 19.

KATO-III = experiment: Gastric cancer cell proliferation inhibitory activity (Cell Counting Kit-8), KATO-III; type: cell-based; details: Homo sapiens, 72 hours, Cell Counting Kit-8, relative IC50
Procedure: as §1, with “six” for “seven”, “gastric” for “colorectal”, “NCI-N87, SNU601, KATO-III, MKN1,” for “DLD-1, LoVo, SW620, SW480, HCT116, HCT15,”, “AGS” for “HT29”, “RPMI1640 medium containing 10 % FBS and 1 % PS, followed by incubation in a cell incubator at 37 °C and 5 % CO2. HS746T cells were dispensed into a 96-well plate at 100 µL of cell suspension per well using DMEM” for “RPMI1640”
(§2) The gastric cancer cell proliferation inhibitory activities of the Example compounds measured by the method described above were evaluated according to the following criteria, and the results are presented in Table 20.

AGS gastric cancer cells = experiment: Zebrafish xenograft gastric cancer model (AGS); type: in vivo
Procedure: Transgenic Tg(fli1:EGFP)y1 zebrafish embryos were cultured in E3 embryo medium with 0.2 mM 1-phenyl-2-thiourea (PTU) at 28 °C for 48 hours. HCC70 breast cancer cells were cultured using RPMI-1640 medium supplemented with 10 % FBS, and AGS gastric cancer cells were cultured using F-12K medium supplemented with 10 % FBS. Each cell was collected, labeled with Dil red fluorescent dye, and then subcutaneously transplanted into 2-day-old zebrafish embryos. After selecting embryos with tumors, they were classified into experimental groups (20 embryos per group), and each Example compound dissolved and diluted in DMSO across 2 to 3 concentration ranges, a DMSO control group, or a comparative compound were added, followed by incubation at 35.5 °C for 48 hours or 72 hours. In the breast cancer model, primary tumors were collected immediately after transplantation (Day 0) and after 48 hours (Day 2), and in the gastric cancer model, primary tumors were obtained immediately after transplantation (Day 0) and after 72 hours (Day 3). Images of the collected tumors were analyzed for reduction in tumor size compared to the DMSO control group using image software, and the number of disseminated cancer cells after 3 days was manually counted through the captured images, with the results shown in FIGs. 6, 7, and 8. […]

SNU601 = experiment: Gastric cancer cell proliferation inhibitory activity (Cell Counting Kit-8), SNU601; type: cell-based; details: SNU-601; 72 hours, Cell Counting Kit-8, relative IC50
Procedure: as §1, with “six” for “seven”, “gastric” for “colorectal”, “NCI-N87, SNU601, KATO-III, MKN1,” for “DLD-1, LoVo, SW620, SW480, HCT116, HCT15,”, “AGS” for “HT29”, “RPMI1640 medium containing 10 % FBS and 1 % PS, followed by incubation in a cell incubator at 37 °C and 5 % CO2. HS746T cells were dispensed into a 96-well plate at 100 µL of cell suspension per well using DMEM” for “RPMI1640”
as §2

SMILES: CN1CCN(c2cc(NCc3nc4ccc(F)c(F)c4[nH]3)c3ncc(C(F)(F)F)n3n2)CC1 [Example 8, N-((6,7-difluoro-1H-benzo[d]imidazol-2-yl)methyl)-6-(4-methylpiperazin-1-yl)-3-(trifluoromethyl)imidazo[1,2-b]pyridazin-8-amine]
- IC50 (DLD-1): ≤ 200 nM
- IC50 (KATO-III): ≤ 200 nM
- number of metastatic gastric cancer cells (AGS gastric cancer cells; 0.1 µM, compared to 1 mM of 5-FU, FIG. 8): significant reduction in the number of metastatic gastric cancer cells
- reduction in tumor size (AGS gastric cancer cells; 72 hours, compared to the vehicle, FIG. 7): dose-dependent reduction in tumor size
- IC50 (SNU601): ≤ 200 nM
